Assay [1] has as its system CD4+ T cells. The assay is described as follows: IFN-γ ELISPOT of CD4+ T cells presensitized with overlapping NY-ESO-1 18 mer peptides. The format is cell-based, human. Conditions: for Patient T cells 1 / Patient T cells 2 / Patient T cells 3: IFN-γ ELISPOT; for Patient T cells 1: day 12, CD4+ T cells of patient 1, autologous peptide pulsed EBV-B cells as targets; for Patient T cells 2: day 12, CD4+ T cells of patient 2, autologous peptide pulsed EBV-B cells as targets; for Patient T cells 3: day 12, CD4+ T cells of patient 3, autologous peptide pulsed EBV-B cells as targets; for patients whose CD4+ T cells recognized the peptide: three patients tested. How it is done:
Peripheral blood mono-nuclear cells (“PBMCs”) were separated from heparinized blood via Ficoll density gradient separation, using standard, art recognized techniques. Once this was done, the CD4^+ and CD8^+ T cells were separated from each other using magnetic cell sorting techniques which are well known to the art, producing CD4^+, CD8^+, and CD4^−/CD8^− cell populations.
A series of 18 mer peptides were prepared from the amino acid sequence of NY-ESO-1 as set forth in, e.g., U.S. Pat. No. 5,804,381, incorporated by reference. The peptides were designed to cover the entire sequence of NY-ESO-1, and to provide overlap.
The peptides were then individually pulsed to antigen presenting cells (“APCs”). These were CD4^−/CD8^− PBMCs taken from the same subjects who had provided the CD4^+ and CD8^+ cells. These APCs were irradiated with 3000 rads, and then pulsed with one of the peptides, at a concentration of 10 μg/ml, for 1 hour, in serum free medium. These APCs were then washed, and added to the CD4^+ cells. In the pulsing experiments, the peptides were solubilized in DMSO (100%) and then diluted with PBS to a final concentration of 10% DMSO. The CD4^+ cells had been cultured in a medium of L-arginine (242 mg/l), L-asparagene (50 mg/l), L-glutamine (300 mg/l), penicillin (10 IU/ml), streptomycin (100 μg/ml), 1% non-essential amino acids, 10% HS, and 10 ng/ml of recombinant human IL-2.
(§1) The CD4^+ T cells were restimulated weekly with 1 μg/ml of the peptide being used. On day 12, each CD4^+ culture was assayed for NY-ESO-1 peptide recognition, using the ELISPOT assay of lager, et al., Proc. Natl. Acad. Sci. USA, 97(9):4760-4765 (2000), incorporated by reference. To elaborate on this procedure, flat-bottomed, 96-well nitrocellulose plates were coated with 5 μg/ml of anti-interferon-gamma antibody and incubated overnight at 4° C. After washing with PBS, plates were blocked with 10% human serum (HS) for 1 hour at 37° C. Depending on the effector:target ratio used, various numbers of presensitized CD4^+ T-cells were added to each well along with 5×10^4 autologous peptide pulsed EBV transfected B cells (“EBV-B cells”) serving as target cells and incubated for 16 hours at 37° C. in TCM without IL-2. Plates were then washed extensively (6 times with a solution of 0.05% Tween 20/PBS), and biotinylated anti-interferon-gamma detection antibody was added at a concentration of 0.5 μg/ml. After incubation for 2 h at 37° C., plates were washed and incubated with ABC-AP Vectastain for 1 hour. Plates were washed again and developed with substrate (BCIP/NPT) until blue spots were visible. The number of blue spots/well represented the proportion of NY-ESO-1 specific CD4^+ T-cells/well was finally counted under the microscope.
The EBV-B-cells were generated from each patients' PBMC following standard methods and maintained in RPMI 1640 medium supplemented with 10 mM Hepes buffer, L-arginine (242 mg/l), L-asparagine (50mg/l), L-glutamine (300 mg/l), penicillin (10 IU/ml), streptomycin (100 μg/ml), 1% non-essential amino acids, and 10% FCS. […] PBMC's or EBV-B-cells were molecularly typed for HLA expression using standard procedures.

The subject of assay [2] is CD4+ T cell clones NW2337-CD4-1 and NW2337-CD4-10. The assay is described as follows: Peptide titration ELISPOT assay with overlapping NY-ESO-1 peptides. The class given is cell-based, human. The conditions noted are these: peptide 10 μM to 0.1 nM pulsed onto autologous EBV-B-cells. On the procedure:
as §1
To further identify the exact epitope required for CD4^+ T cell recognition by these two CD4^+ T cell clones, a peptide titration assay was performed using overlapping NY-ESO-1 peptides (FIG. 2) at concentrations between 10 μM and 0.1 nM, pulsed onto autologous EBV-B-cells and tested in ELISPOT assays (FIG. 3).

Assay [3] deals with T1, HLA-DQB1 03011 (Homo sapiens, UniProt P01909+P01920).
T1 construct: peptide pulsed allogeneic EBV-B-cells with known HLA class II types as stimulator cells; endogenous in cells; host or cells: allogeneic patient-derived EBV-transformed B-cell lines (NW-2078, NW-2081, NW-2395, NW-2234, NW-2337, NW-1100, MZ-1257)
Description: ELISPOT with peptide pulsed allogeneic EBV-B-cells of known HLA class II type (HLA restriction). The format is cell-based. The conditions noted are these: only shared allele of the recognized peptide pulsed allogenic EBV-B cell lines. How it is done:
In order to determine the HLA molecule to which the novel NY-ESO-1 peptides described above bind, the NW2337 CD4^+ T-cell clones NW2337-CD4-1 and NW2337-CD4-10, were tested in ELISPOT assays using a range of peptide pulsed allogeneic EBV-B-cells with known HLA class II types as stimulator cells as indicated in the following Table. The EBV-B-cell lines were HLA typed using standard methods as described above.
The NW2337-CD4-1 clone recognized allogenic peptide pulsed EBV-B cells from patients NW-2078, NW-2081, NW-2395, NW-2234, NW-2337, NW-1100 and MZ-1257. The allogenic EBV-B cells were recognized by the T cells when pulsed exogenously with either the NY-ESO-1 p49-66 or p55-72 as observed with autologous EBV-B cells described above. […] None of the EBV-B-cells lines that were not recognized by the T cells expressed this MHC allele. […] Again the NY-ESO-1 positive MZ-1257 EBV-B-cell line was recognized with or without exogenous peptide.

Assay [4] concerns NW2337 CD4+ T cells. The assay is described as follows: Cytokine ELISPOT assays (IFNγ, TNFα, IL4, IL10) of NW2337 CD4+ T cells. The class given is cell-based, human. An excerpt: All ELISPOT assay described, supra were designed to detect IFN-γ secretion by the T cell clones following specific antigen stimulation. To determine the phenotype of the NY-ESO-1 specific CD4^+ T cell clones from patient NW2337, additional ELISPOT assays were designed to detect additional cytokines.
The NW2337 CD4^+ T cells were stimulated with either NY-ESO-1 p49-66 and p55-72 peptides and T cells secretion of IFNγ, TNFα, IL4 and IL10measured by ELISPOT assay. […] IL4 and IL10 was not secreted by any of the NY-ESO-1 specific CD4^+ T-cell clones tested following stimulation with NY-ESO-1 p49-66 and p55-72 peptides.

The subject of assay [5] is CD4+ T cells. The assay is described as follows: IFN-γ ELISPOT of CD4+ T cells presensitized with overlapping NY-ESO-1 18 mer peptides. The class given is cell-based, human. The conditions noted are these: patient NW2337, limiting dilution.
Assay [6] concerns CD4+ T cell clones NW2337-CD4-1 and NW2337-CD4-10. Description: 51Cr release assay with peptide-pulsed EBV-B target cells. The class given is cell-based, human. The conditions noted are these: for recognition by clone NW2337-CD4-10: clone generated with p55-72. On the procedure:
In these experiments, exemplary clones NY-ESO-1 p49-66 specific CD4^+ T cell clone NW2337-CD4-1 and NY-ESO-1 p55-72 specific CD4^+ T cell clone NW2337-CD4-10 were characterized in ^51Chromium (^51Cr) release assays using peptides overlapping the sequence of each stimulation peptide. Standard ^51Cr release assay methods were used. Briefly, autologous EBV B cell target cells were labeled with 100 μCi Na2^51CrO4 for 2 hours, and pulsed with 18 mer or 20 mer NY-ESO-1 peptides (10 μg/ml) for 1 hour. Then, 1×10^3 target cells/well were incubated in 96 V- bottom microwell plates with effector cells at different E/T ratios for 4 h at 37° C. ^51Cr release was measured in the supernatant and the specific cytotoxicity was calculated using the standard methods. Polyclonal T-cell populations were preincubated with unlabeled K562 cells as competitors at a concentration of 40:1 in order to block non-specific effector reactions.
These experiments confirmed recognition of naturally presented NY-ESO-1 epitopes by the CD4+ T-cell clones.

The mark [7] stands for this setting: autologous EBV B cells pulsed with peptide 10 μg/ml.

T1 sequence (P01920 33-261, other chains not shown): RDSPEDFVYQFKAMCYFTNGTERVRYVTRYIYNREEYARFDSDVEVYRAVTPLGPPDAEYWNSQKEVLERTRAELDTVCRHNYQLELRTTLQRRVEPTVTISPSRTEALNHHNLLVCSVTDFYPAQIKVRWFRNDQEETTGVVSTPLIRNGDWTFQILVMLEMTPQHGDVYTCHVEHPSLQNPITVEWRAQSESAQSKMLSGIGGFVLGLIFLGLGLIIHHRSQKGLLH

On to “P49-66: synthetic 18 mer peptide, amino acids 49-66 of NY-ESO-1 (GAARASGPGGGAPRGPHG; UniProt P78358 49-66, looked up, fragment) [Peptide P49-66]”, for which, in assay [1], the “Patient T cells 1” value is “+ (+ indicates >50 spots (all + scores indicated were >100 spots))”, the “Patient T cells 2” value is “+ (+ indicates >50 spots (all + scores indicated were >100 spots))”, the “Patient T cells 3” value is “+ (+ indicates >50 spots (all + scores indicated were >100 spots))” and the “patients whose CD4+ T cells recognized the peptide” value was “all three patients”. Besides, the “recognition by clone NW2337-CD4-1” value in assay [2] is given as “recognized”. Also, in assay [3], the “MHC class II allele presenting the peptide to NW2337-CD4-1 T cells” value is given as “HLA-DQB1 03011”. Further, in assay [4], the “IFN-γ secretion by stimulated T cell clones” value was “produced”, the “IL4 secretion by stimulated T cell clones” value is “not secreted”, the “IL10 secretion by stimulated T cell clones” value is reported as “not secreted” and the “TNF-α secretion by stimulated T cell clones” value is “produced”. Further, the “CD4+ T-cell clones generated by stimulation with peptide” value in assay [5] is given as 27. In addition, the “lysis of peptide pulsed autologous NW-2337-EBV B-cell lines by clones NW-2337-CD4-1 and -4” value in assay [6] was “efficiently lysed”. Besides, in assay [6] (autologous EBV B cells pulsed with peptide 10 μg/ml, clone generated with p49-66), the “recognition by clone NW2337-CD4-1” value is recorded as “recognized”. The “recognition by clone NW2337-CD4-10” value in assay [6] (setting [7]) is given as “did not crossreact”.
Take “P61-78: synthetic 18 mer peptide, amino acids 61-78 of NY-ESO-1 (PRGPHGGAASGLNGCCRC; UniProt P78358 61-78, looked up, fragment) [Peptide P61-78]”: in assay [1], the “Patient T cells 1” value is on record as “+ (+ indicates >50 spots (all + scores indicated were >100 spots))”, the “Patient T cells 2” value is reported as “+ (+ indicates >50 spots (all + scores indicated were >100 spots))”, the “Patient T cells 3” value is recorded as “+ (+ indicates >50 spots (all + scores indicated were >100 spots))” and the “patients whose CD4+ T cells recognized the peptide” value was “all three patients”. In assay [2], the “recognition by clone NW2337-CD4-10” value was “able to recognize”. Also, the “recognition by clone NW2337-CD4-10” value in assay [6] (setting [7]) was “crossreacted”.

These data come from patent US7632506B2, “Identification of new NY-ESO-1 epitopes recognized by CD4+ T-cells” (Ludwig Institute for Cancer Research, priority 2005, dated 2009).
